Data as given in patent US4129737A, “Process for the preparation of an 8-alkyl-5-oxo-5,8-dihydro-pyrido(2,3-d)pyrimidine-6-carboxylic acid” (priority 1972, dated 1978).
In brackets after ≈: the same amount, converted by molar mass. Where two headings read alike, the source gives them in different places.

Legend:
Format in all cases: cell-based
Klebs. pneumoniae = experiment: Minimum inhibitory concentration by agar dilution, Klebs. pneumoniae; conditions: Klebsiella pneumoniae, 18 h; agar medium, N.A.; Table II; read-out: minimum inhibitory concentration
Method: (§1) (a) Trypticase soya medium (T.S.A.), which is very suitable for culturing the majority of microorganisms; it has the following composition:
(§2) (b) Ordinarily nutrient agar (N.A.), which is less rich in nutrients, corresponds to the following formulation: […]
(§3) Table I gives the minimum inhibitory concentrations (expressed in μg/cm^3) for the various microorganisms tested on each medium.
(§4) The products were tested on three Gram positive microorganisms (1 to 3) […] and on 10 Gram negative microorganisms (4 to 13).
(§5) Table (II) gives the minimum inhibitory concentrations of the compounds of Examples XII to XVI, determined on the agar medium, N.A., and expressed in μg/cm^3.

Staphylococcus 209 P = experiment: Minimum inhibitory concentration by agar dilution, Staphylococcus 209 P; conditions: 18 h, agar medium, N.A., Table II (Staphylococcus 20 P [sic]), read-out: minimum inhibitory concentration
Method: as §1, §2, §3, §4, §5

Pr. vulgaris = experiment: Minimum inhibitory concentration by agar dilution, Pr. vulgaris; conditions: Proteus vulgaris, 18 h, read-out: minimum inhibitory concentration
Method: as §1, §2, §3, §4, §5

Bord. bronchiseptica = experiment: Minimum inhibitory concentration by agar dilution, Bord. bronchiseptica; conditions: Bordetella bronchiseptica, 18 h, read-out: minimum inhibitory concentration
Method: as §1, §2, §3, §4, §5

Streptococcus = experiment: Minimum inhibitory concentration by agar dilution, Streptococcus Group A; conditions: 18 h; agar medium, N.A.; Table II; read-out: minimum inhibitory concentration
Method: as §1, §2, §3, §4, §5

Esch. Coli 95 = experiment: Minimum inhibitory concentration by agar dilution, Esch. Coli 95; conditions: Escherichia coli, 18 h; agar medium, N.A.; Table II; read-out: minimum inhibitory concentration
Method: as §1, §2, §3, §4, §5

B. pyocyaneus A22 = experiment: Minimum inhibitory concentration by agar dilution, B. pyocyaneus A22; conditions: Pseudomonas aeruginosa, A22, 18 h; agar medium, N.A.; Table II; read-out: minimum inhibitory concentration
Method: as §1, §2, §3, §4, §5

Pr. morganii = experiment: Minimum inhibitory concentration by agar dilution, Pr. morganii; conditions: Morganella morganii, 18 h; agar medium, N.A.; Table II; read-out: minimum inhibitory concentration
Method: as §1, §2, §3, §4, §5

Salm. typhi = experiment: Minimum inhibitory concentration by agar dilution, Salm. typhi; conditions: Salmonella enterica, 18 h, read-out: minimum inhibitory concentration
Method: as §1, §2, §3, §4, §5

B. subtilis = experiment: Minimum inhibitory concentration by agar dilution, B. subtilis; conditions: Bacillus subtilis, 18 h; agar medium, N.A.; Table II; read-out: minimum inhibitory concentration
Method: as §1, §2, §3, §4, §5

Sh. sonnei = experiment: Minimum inhibitory concentration by agar dilution, Sh. sonnei; conditions: Shigella sonnei, 18 h; agar medium, N.A.; Table II; read-out: minimum inhibitory concentration
Method: as §1, §2, §3, §4, §5

Pr. mirabilis = experiment: Minimum inhibitory concentration by agar dilution, Pr. mirabilis; conditions: Proteus mirabilis, 18 h, read-out: minimum inhibitory concentration
Method: as §1, §2, §3, §4, §5

| Compound | MIC (Klebs. pneumoniae) | MIC (Staphylococcus 209 P) | MIC (Pr. vulgaris; agar medium, N.A., Table II) | MIC (Bord. bronchiseptica; agar medium, N.A., Table II) | MIC (Streptococcus) | MIC (Esch. Coli 95) | MIC (B. pyocyaneus A22) | MIC (Pr. morganii) | MIC (Salm. typhi) | MIC (B. subtilis) | MIC (Sh. sonnei) | MIC (Pr. mirabilis; agar medium, N.A., Table II) | MIC (Bord. bronchiseptica) | MIC (Pr. mirabilis) | MIC (Pr. vulgaris) |
| --- | --- | --- | --- | --- | --- | --- | --- | --- | --- | --- | --- | --- | --- | --- | --- |
| CCN1CCN(c2ncc3c(=O)c(C(=O)O)cn(CC)c3n2)CC1 [Example XII, 2-(4'-Ethyl-piperazino)-5-oxo-8-ethyl-5,8-dihydro-pyrido(2,3-d)pyrimidine-6-carboxylic acid] | 0.4 µg/mL (≈ 1.21 µM) | 1.6 µg/mL (≈ 4.83 µM) | 0.8 µg/mL (≈ 2.41 µM) | 100 µg/mL (≈ 302 µM) | 3.1 µg/mL (≈ 9.35 µM) | 0.8 µg/mL (≈ 2.41 µM) | 100 µg/mL (≈ 302 µM) | 0.8 µg/mL (≈ 2.41 µM) | 0.8 µg/mL (≈ 2.41 µM) | 100 µg/mL (≈ 302 µM) | 0.8 µg/mL (≈ 2.41 µM) | 6.2 µg/mL (≈ 18.7 µM) |  |  |  |
| CCCN1CCN(c2ncc3c(=O)c(C(=O)O)cn(CC)c3n2)CC1 [XIII, 2-(4'-Propyl-piperazino)-5-oxo-8-ethyl-5,8-dihydro-pyrido(2,3-d)pyrimidine-6-carboxylic acid] | 1.6 µg/mL (≈ 4.63 µM) | 6.2 µg/mL (≈ 18 µM) | 6.2 µg/mL (≈ 18 µM) |  | 6.2 µg/mL (≈ 18 µM) | 50 µg/mL (≈ 145 µM) | 100 µg/mL (≈ 290 µM) | 6.2 µg/mL (≈ 18 µM) | 12.5 µg/mL (≈ 36.2 µM) | 3.1 µg/mL (≈ 8.98 µM) | 1.6 µg/mL (≈ 4.63 µM) |  | 12.5 µg/mL (≈ 36.2 µM) | 12.5 µg/mL (≈ 36.2 µM) |  |
| C=CCN1CCN(c2ncc3c(=O)c(C(=O)O)cn(CC)c3n2)CC1 [XIV, 2-(4'-Allyl-piperazino)-5-oxo-8-ethyl-5,8-dihydro-pyrido(2,3-d)pyrimidine-6-carboxylic acid] | 0.4 µg/mL (≈ 1.16 µM) | 3.1 µg/mL (≈ 9.03 µM) | 3.1 µg/mL (≈ 9.03 µM) | 3.1 µg/mL (≈ 9.03 µM) | 1.6 µg/mL (≈ 4.66 µM) | 50 µg/mL (≈ 146 µM) | 25 µg/mL (≈ 72.8 µM) | 1.6 µg/mL (≈ 4.66 µM) | 3.1 µg/mL (≈ 9.03 µM) | 3.1 µg/mL (≈ 9.03 µM) | 0.8 µg/mL (≈ 2.33 µM) | 6.2 µg/mL (≈ 18.1 µM) |  |  |  |
| CCn1cc(C(=O)O)c(=O)c2cnc(N3CCN(Cc4ccc(OC)cc4)CC3)nc21 [XVI, 2-(4'-p-Methoxybenzyl-piperazino)-5-oxo-8-ethyl-5,8-dihydro-pyrido(2,3-d)pyrimidine-6-carboxylic acid] | 0.2 µg/mL (≈ 0.472 µM) | 0.4 µg/mL (≈ 0.945 µM) | 6.2 µg/mL (≈ 14.6 µM) | 12.5 µg/mL (≈ 29.5 µM) | 0.8 µg/mL (≈ 1.89 µM) | 3.1 µg/mL (≈ 7.32 µM) | 12.5 µg/mL (≈ 29.5 µM) | 1.6 µg/mL (≈ 3.78 µM) | 1.6 µg/mL (≈ 3.78 µM) | 50 µg/mL (≈ 118 µM) | 0.8 µg/mL (≈ 1.89 µM) | 12.5 µg/mL (≈ 29.5 µM) |  |  |  |
| CCn1cc(C(=O)O)c(=O)c2cnc(N3CCN(Cc4ccc(Cl)cc4)CC3)nc21 [XV, 2-(4'-p-Chlorobenzyl-piperazino)-5-oxo-8-ethyl-5,8-dihydro-pyrido(2,3-d)pyrimidine-6-carboxylic acid] | 0.8 µg/mL (≈ 1.87 µM) | 0.8 µg/mL (≈ 1.87 µM) |  | 3.1 µg/mL (≈ 7.24 µM) | 1.6 µg/mL (≈ 3.74 µM) | 100 µg/mL (≈ 234 µM) | 50 µg/mL (≈ 117 µM) | 6.2 µg/mL (≈ 14.5 µM) | 12.5 µg/mL (≈ 29.2 µM) | 1.6 µg/mL (≈ 3.74 µM) | 1.6 µg/mL (≈ 3.74 µM) |  |  | 12.5 µg/mL (≈ 29.2 µM) | 12.5 µg/mL (≈ 29.2 µM) |
